# Where “and” joins values, the source holds several entries; their conditions need not be identical. Equal values may be shown once. Where a name gives a salt, the structure may show the parent alone. Read-outs that look alike come from different tables or passages of the source. Marks after values point to notes of the source that are not given here. Where a SMILES comes first, the peptide text is derived from it. [ ]: non-standard residue; d: D form. dPhe(F5) = N[C@H](Cc1c(F)c(F)c(F)c(F)c1F)C(=O)O; dBpa = N[C@H](Cc1ccc(C(=O)c2ccccc2)cc1)C(=O)O; dCha = N[C@H](CC1CCCCC1)C(=O)O
# Experiments:
# [1] = tested on: adjuvant-induced arthritis; conditions: rat
# [2] = tested on: kinases involved in the cell cycle G2 checkpoint, including mitogen activated kinase p38; conditions: as disclosed in U.S. application Ser. No. 10/347,145; cited from earlier work
# [3] = tested on: passive cutaneous anaphylaxis (PCA); experiment: Passive cutaneous anaphylaxis (PCA) in rats; assay type: in vivo, Wistar rats; conditions: rat, IP; for PCA Response 1st Spot / PCA Response 2nd Spot: weal score per animal (N 1-3); for % Inhibition: relative to vehicle control group; for Total PCA Response: sum of scores of 3 animals
# Description: CBP501 (SEQ ID NO: 80) was evaluated for anti-allergic activity in a model of passive cutaneous anaphylaxis (PCA) in Wistar rats. CBP501, at doses of 20, 10, and 5 mg/kg, was administered intraperitoneally (IP) 30 minutes before challenge with a mixture of ovalbumin and Evans Blue dye.
# CBP501 was dissolved in 0.9% NaCl. CBP501, at 20, 10 and 5 mg/kg, was administered intraperitoneally (IP) 30 min before challenge with a mixture of ovalbumin and Evans Blue dye.
# Animals: Male or female Wistar rats were provided by the animal breeding center of MDS Pharma Services-Taiwan Ltd. Space allocation for 6 animals was 45×23×21 cm. All animals were maintained in a hygienic environment in a controlled temperature (21.5-22.5° C.) and humidity (50%-70%) environment, with 12 hour light-dark cycles for at least one week, housed in the MDS Pharma Services-Taiwan Laboratory, prior to being used. All aspects of this work including housing, experimentation and disposal of animals were performed in general accordance with the International Guiding Principles for Biomedical Research Involving Animals (CIOMS Publication No. ISBN 92 90360194, 1985).
# Chemicals: Cyproheptadine-HCl (RBI-USA), ethanol absolute (Merck, Germany), distilled water (in-house), Evans Blue (Fluka, Switzerland), and ovalbumin (Sigma-Aldrich, USA) were used.
# Method of administration: Five groups of three (3) Wistar-derived male rats weighing 80+/−10 g were passively sensitized 16 hours earlier by intradermal injection of reaginic (IgE) antiovalbumin serum (0.05 ml) on two spots of the dorsal surface. […] Within 30 minutes after administration of CBP501, the animals were challenged intravenously (IV) with a mixture of ovalbumin (1 mg) and Evans Blue dye (5 mg). Animals were sacrificed 30 minutes after challenge.
# Results: Two measured weal diameters were averaged for each animal and scored 0 if <0.05 cm, 1 if 0.05-0.2 cm, 2 if 0.2-0.4 cm, 3 if 0.4-0.6 cm, 4 if 0.6-0.8 cm and 5 if >0.8 cm. Maximum possible score for each animal totals 2×5=10. Inhibition of the resulting PCA blue colored weal by 50 percent or more relative to the vehicle control group indicates possible antiallergic activity. Results are shown in Table 1, below, where significant changes are indicated by an asterisk(*).
# [4] = tested on: peripheral blood mononuclear cells (PBMC); experiment: Cytotoxicity in PBMC (tetrazolium dye reduction); assay type: cell-based
# Description: (§1) CBP501 was tested for antiviral activity against HIV-1 in peripheral blood mononuclear cells (PBMC) using the clinical pediatric HIV strain WeJo. PBMCs were derived from normal HIV-1-negative donors, and cultured under conditions which promote cell survival and HIV replication. Antiviral activity was measured by detecting the amount of extracellular HIV-1p24 protein in a sample, where a decrease in p24 levels indicated antiviral activity. Cytotoxity was measured by a tetrazolium dye reduction method. Antiviral activity was analyzed for a series of dilutions of a stock solution of 100 μg/ml CBP501. The experiments were performed using serial dilutions of the compound, generating a series of concentrations from 0.3125 to 80 μg/ml CBP501.
# [5] = Cytotoxicity in PBMC (tetrazolium dye reduction); assay type: cell-based; conditions: human, peripheral blood mononuclear cells (PBMC), highest concentration tested 80 μg/ml, called an estimate, read-out: TC50 (concentration decreasing cell viability by 50%)
# Description: as §1
# monocyte/macrophages = experiment: Cytotoxicity in monocyte/macrophages (tetrazolium dye reduction); assay type: cell-based, human
# Description: as §1, with “evaluated” for “tested”, “activity” for “activity against HIV-1”, “monocyte/macrophages” for “peripheral blood mononuclear cells (PBMC)”, “the” for “the clinical pediatric”, “Ba-L. Monocyte/macrophages” for “WeJo. PBMCs”
# [6] = as above; assay type: cell-based, human; conditions: human, highest concentration tested 80 μg/ml, called an estimate, read-out: TC50 (concentration decreasing cell viability by 50%)
# Description: as §1, with “evaluated” for “tested”, “activity” for “activity against HIV-1”, “monocyte/macrophages” for “peripheral blood mononuclear cells (PBMC)”, “the” for “the clinical pediatric”, “Ba-L. Monocyte/macrophages” for “WeJo. PBMCs”
# HIV-1 strain WeJo = experiment: Inhibition of HIV-1 replication in PBMC (extracellular p24); assay type: cell-based; conditions: HIV-1 strain WeJo in PBMC
# Description: as §1
# 14-3-3 protein = conditions: as disclosed in U.S. application Ser. No. 10/347,145; cited from earlier work
# HIV-1 strain Ba-L = experiment: Inhibition of HIV-1 replication in human monocyte/macrophages (extracellular p24); assay type: cell-based; conditions: HIV-1 strain Ba-L in monocyte/macrophages
# Description: as §1, with “evaluated” for “tested”, “activity” for “activity against HIV-1”, “monocyte/macrophages” for “peripheral blood mononuclear cells (PBMC)”, “the” for “the clinical pediatric”, “Ba-L. Monocyte/macrophages” for “WeJo. PBMCs”
# [7] = 5 mg/kg, 30 min before challenge
# [8] = 10 mg/kg, 30 min before challenge
# [9] = 20 mg/kg, 30 min before challenge
# [10] = highest concentration tested 80 μg/ml, called an estimate
smiles,measurement,setting,value
"N=C(N)NCCC[C@@H](NC(=O)[C@@H](CCCNC(=N)N)NC(=O)[C@@H](CCC(N)=O)NC(=O)[C@@H](CCCNC(=N)N)NC(=O)[C@@H](CCCNC(=N)N)NC(=O)[C@@H](CCCNC(=N)N)NC(=O)[C@@H](CC1CCCCC1)NC(=O)[C@@H](Cc1c(F)c(F)c(F)c(F)c1F)NC(=O)[C@@H](CO)NC(=O)[C@@H](Cc1c[nH]c2ccccc12)NC(=O)[C@@H](CO)NC(=O)[C@H](N)Cc1ccc(C(=O)c2ccccc2)cc1)C(=O)O [CBP501, (d-Bpa)(d-Ser)(d-Trp)(d-Ser)(d-Phe-2,3,4,5,6-F)(d-Cha)(d-Arg)(d-Arg)(d-Arg)(d-Gln)(d-Arg)(d-Arg)] (H-[dBpa][dS][dW][dS][dPhe(F5)][dCha][dR][dR][dR][dQ][dR][dR]-OH)",activity in acute phase (in words),"[1]; IP, 2.5 mg/kg ×5 doses",moderate but non-significant activity
same,activity in late phase (in words),"[1]; IP, 2.5 mg/kg ×5 doses",no activity
same,anti-inflammatory activity in both acute and late phase (in words),"[1]; IP, 5 mg/kg once daily for 5 consecutive days",significant anti-inflammatory activity
same,anti-inflammatory activity in both acute and late phase (in words),"[1]; IP, 10 mg/kg single dose",significant anti-inflammatory activity
same,"% Inhibition relative to Vehicle treated control, Days (1-5)","[1]; in vivo, ip, 2.5 mg/kg",27%
same,"% Inhibition relative to Vehicle treated control, Days (14-18)","[1]; in vivo, ip, 2.5 mg/kg",−11%
same,"% Inhibition relative to Vehicle treated control, Days (1-5)","[1]; in vivo, ip, 5 mg/kg",51* %
same,"% Inhibition relative to Vehicle treated control, Days (14-18)","[1]; in vivo, ip, 5 mg/kg",34* %
same,"% Inhibition relative to Vehicle treated control, Days (1-5)","[1]; in vivo, ip, 10 mg/kg",61* %
same,"% Inhibition relative to Vehicle treated control, Days (14-18)","[1]; in vivo, ip, 10 mg/kg",31* %
same,inhibition of phosphorylation activities of kinases involved in the cell cycle G2 checkpoint (in words),[2],inhibits the phosphorylation activities
same,PCA Response 1st Spot,[3]; [7],0 (0 if <0.05 cm) and 1 (1 if 0.05-0.2 cm) (2×)
same,PCA Response 2nd Spot,[3]; [7],0 (0 if <0.05 cm) and 1 (1 if 0.05-0.2 cm) (2×)
same,% Inhibition,"[3]; 5 mg/kg, 5 mg/kg",87%
same,Total PCA Response,[3]; 5 mg/kg,4
same,PCA Response 1st Spot,[3]; [8],0 (0 if <0.05 cm) (2×) and 1 (1 if 0.05-0.2 cm)
same,PCA Response 2nd Spot,[3]; [8],0 (0 if <0.05 cm) (2×) and 1 (1 if 0.05-0.2 cm)
same,% Inhibition,"[3]; 10 mg/kg, 10 mg/kg",93%
same,Total PCA Response,[3]; 10 mg/kg,2
same,PCA Response 1st Spot,[3]; [9],0 (0 if <0.05 cm) (2×) and 1 (1 if 0.05-0.2 cm)
same,PCA Response 2nd Spot,[3]; [9],0 (0 if <0.05 cm) (2×) and 1 (1 if 0.05-0.2 cm)
same,% Inhibition,"[3]; 20 mg/kg, 20 mg/kg",93%
same,Total PCA Response,[3]; 20 mg/kg,2
same,cell viability at the highest concentration tested (in words),[4]; 80 μg/ml,hardly affected
same,TC50 (concentration decreasing cell viability by 50%),[4]; [10],> 80 µg/mL
same,CC50,[5],> 80 µg/mL
same,decrease of cell viability at the highest concentration tested,monocyte/macrophages; 80 μg/ml,about 25%
same,TC50 (concentration decreasing cell viability by 50%),monocyte/macrophages; [10],> 80 µg/mL
same,CC50,[6],> 80 µg/mL
same,TI (therapeutic index=TC50/IC50),HIV-1 strain WeJo,> 113
same,IC50 (concentration that inhibited virus replication by 50%),HIV-1 strain WeJo; p24,0.71 µg/mL
same,binding to 14-3-3 protein (in words),14-3-3 protein,binds
same,TI (therapeutic index=TC50/IC50),HIV-1 strain Ba-L,> 12.3
same,IC50 (concentration that inhibited virus replication by 50%),HIV-1 strain Ba-L; p24,6.5 µg/mL
"CN1CCC(=C2c3ccccc3C=Cc3ccccc32)CC1 [Cyproheptadine, Cyproheptadine-HCl, reference compound]",% Inhibition,"[3]; 1 mg/kg, 1 mg/kg",87* %
same,% Inhibition,"[3]; 1 mg/kg, listed as cyproheptadine-HCl, 1 mg/kg",87%
same,Total PCA Response,[3]; 1 mg/kg,4
same,PCA Response 1st Spot,[3]; 1 mg/kg,0 (0 if <0.05 cm) and 1 (1 if 0.05-0.2 cm) (2×)
same,PCA Response 2nd Spot,[3]; 1 mg/kg,0 (0 if <0.05 cm) and 1 (1 if 0.05-0.2 cm) (2×)
"C[C@]12CCC(=O)C=C1CC[C@@H]1[C@@H]2[C@@H](O)C[C@@]2(C)[C@H]1CC[C@]2(O)C(=O)CO [Hydrocortisone, hydrocortisone, reference compound]",activity in the acute phase (in words),[1]; 30 mg/kg daily for 5 days,significant activity
same,activity in the late phase (in words),[1]; 30 mg/kg daily for 5 days,near-significant activity
same,"% Inhibition relative to Vehicle treated control, Days (14-18)","[1]; PO, 30 mg/kg per dose × 5 doses, left hind paw volume, late phase",29%
same,"% Inhibition relative to Vehicle treated control, Days (1-5)","[1]; PO, 30 mg/kg per dose × 5 doses, right hind paw volume, acute phase",42* %
